According to US20090247611A1, “METHOD OF TREATING A CANCER WITH A SURVIVIN ANTISENSE OLIGONUCLEOTIDE AND PACLITAXEL” (priority 2004, published 2009):

Legend:
HeLa cells = experiment: cell based caspase 3 assay; conditions: oligonucleotide 50 nM transfected 24 h, then 10 nM gemcitabine HCl or 1.25 nM paclitaxel for additional 48 h, compared to untreated control
Experimental: The assay is performed as described below.
HeLa cells are obtained from ATCC, Manassas, Va. and are cultured in DMEM with L-Glutamine medium (Gibco/Invitrogen) supplemented with 10% Fetal Bovine Serum (Hyclone), 0.1 mM Non-Essential Amino Acids, and 1 mM Sodium Pyruvate (Gibco/Invitrogen). For the caspase-3 assay, 96-well plates are plated with 1×10^4 cells/well. […] Caspases-3 activity is measured by reading proteolytically released fluor from the Ac-DEVD-AMC substrate using a plate-reading fluorometer with excitation at 360 nm and emission at 460 nm. After subtracting the plate background, the relative fluorescence units (RFU) are compared to untreated control and expressed as percentage increase in caspase-3 activity.
To investigate whether down-regulation of Survivin expression sensitizes HeLa cells to chemotherapy, combination treatment with Compound I and either gemcitabine HCl, doxorubicin HCl, or paclitaxel is evaluated. […] At the end of the incubation period, casapse-3 activity is measured. […] Data are expressed as percentage caspase-3 activity compared to untreated control.

[1] = test system: U-87 MG human glioblastoma; experiment: human xenograft tumor model, tumor growth delay; assay type: in vivo; conditions: U-87 MG s.c. xenograft; oligonucleotide 50 mg/kg loading then 25 mg/kg i.v. every other day; gemcitabine HCl 2.5 mg/kg i.p. every third day x4
Experimental: The use of human xenograft tumor models has been described previously and is well known in the art. The following tumor types can be used to conduct the assay as described below. U-87 MG human glioblastoma are obtained from […] et al., Neoplasia (2000) 2(3):242-50). For xenograft studies, just before implantation, animals are irradiated (450 TBI (total body irradiation)), and cells are mixed in matrigel (1:1). […] All subsequent intravenous doses (25 mg/kg) of Compound I or MM control oligonucleotide are administered every other day. The treatment with sub-optimal doses of gemcitabine HCl, doxorubicin HCl, or paclitaxel is initiated one day following the loading dose. Gemcitabine HCl is administered intraperitoneally at 2.5 mg/kg every third day for a total of four doses. Paclitaxel is administered intravenously at 1 mg/kg every fourth day for a total of four doses. Bi-dimensional measurements are performed twice per week, and tumor volumes are calculated based on the following formula: […] Tumor volume data are transformed to a log scale to equalize variance across time and treatment groups. The data are analyzed using a two-way analysis of variance by time and treatment using SAS PROC MIXED software (SAS Institute, Inc., Cary, N.C.). The preferred correlation model for the repeated measures is AR (Auto Regressive of order 1). Treatment groups are compared at each time point. The data are plotted as means and standard errors for each treatment group versus time. The presence of synergy in combination therapies is assessed on the tumor growth delay (TGD) scale. The time to reach a specified tumor size (1500 or 2000 or 2500 mg in this study) is determined for each animal. […] Maximum likelihood analysis assuming a Weibull distribution is used to calculate mean times and standard errors for each treatment group. Tumor growth delay is the difference in mean times between each of the treated groups and the control group.

Row | SMILES | Mean (% Caspase-3 Activity) (HeLa cells) | Tumor Growth Delay at 1500 mg, Mean ± S.E.M. [1] | Tumor Growth Delay at 2000 mg, Mean ± S.E.M. [1] | Tumor Growth Delay at 2500 mg, Mean ± S.E.M. [1]
1 | Cl.Nc1ccn([C@@H]2O[C@H](CO)[C@@H](O)C2(F)F)c(=O)n1 (single isomer, unassigned) [Gemcitabine HCl, 2′-deoxy-2′,2′-difluorocytidine monohydrochloride (⊖-isomer)] | 24.33% | 0.3 ± 1.1 days | 0.3 ± 1.2 days | 0.6 ± 1 days
2 | CC(=O)O[C@H]1C(=O)[C@@]2(C)[C@H]([C@H](OC(=O)c3ccccc3)[C@]3(O)C[C@H](OC(=O)[C@H](O)[C@@H](NC(=O)c4ccccc4)c4ccccc4)C(C)=C1C3(C)C)[C@]1(OC(C)=O)CO[C@@H]1C[C@@H]2O [Paclitaxel, 5β, 20-Epoxy-1,2α,4,7β,10β,13α-hexahydroxytax-11-en-9-one 4,10-diacetate 2-benzoate 13-ester with (2R,3 S)—N-benzoyl-3-phenylisoserine] | 12.77% |  |  | 
